Results from US10561614B2, “Tenofovir granules” (STEERLIFE INDIA PRIVATE LIMITED, priority 2017, dated 2020).

Test: Organic impurities of TDF granules by HPLC (USP Pending Monograph procedure 1), before and after twin screw granulation
Assay type: physicochemical
Details: initial, no storage
Protocol: The test of organic impurities of Tenofovir Disoproxil Fumarate granules carried out by HPLC (Make-Agilent 1260 Infinity series).
The Tenofovir Disoproxil Fumarate granules sample was analyzed for organic impurities as per method based on Organic impurities, procedure 1 of USP Pending Monographs of Tenofovir Disoproxil Fumarate v.1 Authorized Sep. 1, 2011.
The standard, Tenofovir Disoproxil Fumarate (TDF) was prepared in solution A. concentration 0.502 μg/mL in solution. The sample i.e., TDF granules of the present invention was prepared in solution A, concentration 520.05 μg/mL.
The standard and sample solution was injected in chromatographic system and following impurity results are reported.
The test of organic impurities of Tenofovir Disoproxil Fumarate granules carried out by HPLC (Agilent 1260 Infinity series).
The Tenofovir Disoproxil Fumarate granules sample were analyzed for organic impurities as per Organic impurities, procedure 1 of USP Pending Monographs of Tenofovir Disoproxil Fumarate v.1 Authorized Sep. 1, 2011.
The standard [Tenofovir Disoproxil Fumarate (TDF)] was prepared in solution A. concentration 0.502 μg/mL in solution.
The sample [TDF granules of the present invention] was prepared in solution A, concentration 520.05 μg/mL.

(R)-9-(2-Phosphonomethoxypropyl)adenine impurity: BDL | Adenine impurity: Not detected | Any individual unspecified impurity: 0.02% | Tenofovir disoproxil carbamate impurity: Not detected | Tenofovir disoproxil dimer impurity: 0.04% | Tenofovir disoproxil ethyl ester impurity: 0.03% | Tenofovir isopropyl isoproxil impurity: 0.17% | Tenofovir isoproxil monoester impurity: 0.48% | Total impurities: 0.84% | Adenine impurity (listed as Unprocessed (API)): BDL | Any individual unspecified impurity (listed as Unprocessed (API)): 0.015% | Tenofovir isopropyl isoproxil impurity (listed as Unprocessed (API)): 0.118% | Tenofovir isoproxil monoester impurity (listed as Unprocessed (API)): 0.321% | Total impurities (listed as Unprocessed (API)): 0.490%
Compound: CC(C)OC(=O)OCOP(=O)(CO[C@H](C)Cn1cnc2c(N)ncnc21)OCOC(=O)OC(C)C.O=C(O)/C=C/C(=O)O [Unprocessed TDF API, 9-[(R)-2-[[bis[[(isopropoxycarbonyl)oxy]-methoxy]phosphinyl]methoxy]propyl]adenine fumarate (1:1)]
